We go through eight molecules from patent publication US9662390B2, “Use of opioid antagonists to attenuate endothelial cell proliferation and migration” (THE UNIVERSITY OF CHICAGO, priority 2005, dated 2017).

The conditions of data set [1]: sickle cell disease; cited from earlier work.
Another data set relates to RhoA. As to the kind of experiment: RhoA activation assay (RBD beads, anti-RhoA immunoblot). The format is cell-based, human. The settings on record: for agonist-stimulated RhoA activation: endothelial cells.
The test system of a further data set is PDGF receptor. The data set can be described thus: Tyrosine phosphorylation of the PDGF receptor in EC (Example 9). The format is cell-based, human.
Another data set has as its system VEGF receptor. The data set can be described thus: Tyrosine phosphorylation of the VEGF receptor in EC (Example 9). In kind it is cell-based, human.
The subject of the next data set is S1P3 receptor. As to the kind of experiment: Tyrosine phosphorylation of the S1P3 receptor in EC (Example 9). The format is cell-based, human.
The subject of a further data set is F11 c-1. The settings on record: T241 fibrosarcoma; no increase in morphine treated KO mice; cited from earlier work.
A further data set has as its system VEGF receptor 2 (Flk-1). As to the kind of experiment: Tyrosine phosphorylation of VEGF receptor 2, immunoprecipitation and immunoblot. The format is cell-based, human. The settings on record: HPMVEC. On the technique in general: A western blot detects proteins with antibodies after separation by electrophoresis.
The subject of data set [2] is human pulmonary microvascular endothelial cells (HPMVEC). As to the kind of experiment: Human pulmonary microvascular EC proliferation assay (CellTiter96 MTS). In kind it is cell-based. The settings on record: for agonist-induced HPMVEC proliferation: agonist 100 nM, 24 h, serum-free media.
For data set [3] the test system is unchanged. As to the kind of experiment: Human pulmonary microvascular EC migration assay (Transwell). The note with it: for agonist-induced HPMVEC migration: agonist 100 nM, 18 hours. The format is cell-based.
For another data set, the system named is VEGF receptor 1 (Flt-1). The data set can be described thus: Tyrosine phosphorylation of VEGF receptor 1, immunoprecipitation and immunoblot. The settings on record: HPMVEC. In kind it is cell-based, human.
For another data set, the target named is mu opioid receptor (Homo sapiens, UniProt P35372). The data set can be described thus: Serine/threonine phosphorylation of the mu opioid receptor in EC (Example 9). The format is cell-based.
The next data set relates to tumor. As to the kind of experiment: Human cancer patients: tumor growth and angiogenesis. In kind it is in vivo. The note with it: antagonist orally 5 mg/kg/day, eight weeks, with opioid and bevacizumab (Avastin).
A further data set concerns tumors. The data set can be described thus: Tumor-bearing mice: tumor growth and angiogenesis. In kind it is in vivo. The note with it: eight weeks; for angiogenesis and tumor growth, combination of opioid, opioid antagonist and anticancer agent compared to the other groups: antagonist 5 mg/kg/day, morphine 0.5 mg/kg/day, bevacizumab (Avastin) 5 mg/kg every 14 days; for tumor growth and angiogenesis compared to controls or opioid alone: antagonist orally 5 mg/kg/day with morphine orally 0.5 mg/kg/day.

The conditions of data set [4]: in vivo; cited from earlier work.
For data set [5] the following is noted: white crystalline powder, typically the bromide salt; cited from earlier work.
For data set [6], the system named is morphine induced angiogenesis. The note with it: xenograft tumor model in mice; cited from earlier work.
[7] abbreviates: MNTX 100 nM (0.1 μM, 1 hour pretreatment), induced by MS/morphine, DAMGO, VEGF, in Example 9 also S1P and PDGF.

Entries after “also recorded” stand apart in the source; their conditions may differ.

mu opioid receptor, sequence (P35372 whole entry): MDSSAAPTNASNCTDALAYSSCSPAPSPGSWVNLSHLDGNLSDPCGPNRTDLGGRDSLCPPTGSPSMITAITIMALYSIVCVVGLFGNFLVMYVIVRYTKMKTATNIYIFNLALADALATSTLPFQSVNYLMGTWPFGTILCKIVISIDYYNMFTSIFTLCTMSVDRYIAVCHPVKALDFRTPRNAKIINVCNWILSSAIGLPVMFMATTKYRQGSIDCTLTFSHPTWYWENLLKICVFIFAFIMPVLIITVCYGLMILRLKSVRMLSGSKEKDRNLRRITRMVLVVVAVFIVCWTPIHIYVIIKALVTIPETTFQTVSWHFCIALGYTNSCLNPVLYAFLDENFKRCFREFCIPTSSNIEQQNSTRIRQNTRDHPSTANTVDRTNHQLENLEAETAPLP
Source text for RhoA: The supernatant is removed and the RBD-beads with the GTP-bound form of RhoA bound are washed extensively.

On to `CN1CC[C@]23c4c5ccc(O)c4O[C@H]2[C@@H](O)C=C[C@H]3[C@H]1C5` [morphine], for which, in data set [1], the proliferative retinopathy result is recorded as “induced proliferative retinopathy”. The “agonist-stimulated RhoA activation” value in the data set with RhoA and in the data set with RhoA (listed as MS) was “stimulate RhoA activation” in each case. Further, the “agonist-induced tyrosine phosphorylation of the PDGF receptor” value in the data set with PDGF receptor is reported as “induced tyrosine phosphorylation”. For the same molecule, in the data set with VEGF receptor, the “agonist-induced tyrosine phosphorylation of the VEGF receptor” value was “induced tyrosine phosphorylation”. Moreover, the “agonist-induced tyrosine phosphorylation of the S1P3 receptor” value with S1P3 receptor is “induced tyrosine phosphorylation”. Also, the “increase in F11 c-1 expression in morphine treated mice versus controls” value in the data set on F11 c-1 is 10 fold. In addition, the “agonist-induced tyrosine phosphorylation of VEGF receptor 2 (Flk-1)” value in the data set with VEGF receptor 2 (Flk-1) was “induce tyrosine phosphorylation”. In addition, the “agonist-induced HPMVEC proliferation” value was “induced proliferation” in [2] and “stimulate HPMVEC proliferation” in data set [2] (listed as MS). In addition, the “agonist-induced HPMVEC migration” value in data set [3] is “induced”; in data set [3] (listed as MS), “induce HPMVEC migration”. The “agonist-induced tyrosine phosphorylation of VEGF receptor 1 (Flt-1)” value in the data set with VEGF receptor 1 (Flt-1) was “induce tyrosine phosphorylation”.
For the molecule `CCCCCCCCCCCCC/C=C/[C@@H](O)[C@@H](N)COP(=O)(O)O` [SIP, sphingosine 1-phosphate], the “agonist-stimulated RhoA activation” value with RhoA is recorded as “activation of the cytoskeletal regulatory small G-protein, RhoA”. Moreover, in data set [2], the “agonist-induced HPMVEC proliferation” value is listed as “induced proliferation”. For the same molecule, the “agonist-induced serine/threonine phosphorylation of the mu opioid receptor” value at mu opioid receptor was “induced serine/threonine phosphorylation”. Besides, the “agonist-induced HPMVEC migration” value in [3] is “induced”.
For the molecule `C[C@H]1CN(C[C@H](Cc2ccccc2)C(=O)NCC(=O)O)CC[C@@]1(C)c1cccc(O)c1` [alvimopan], the “angiogenesis and tumor growth, combination of opioid, opioid antagonist and anticancer agent compared to the other groups” value with tumor is on record as “enhanced result”. In addition, in the data set with tumors, the “angiogenesis and tumor growth, combination of opioid, opioid antagonist and anticancer agent compared to the other groups” value is on record as “enhanced result”; the “tumor growth and angiogenesis compared to controls or opioid alone” value was “reduction in tumor growth and angiogenesis”.
Take `C[N+]1(CC2CC2)CCC23c4c5ccc(O)c4OC2C(=O)CCC3(O)C1C5` (stereo not shown) [MNTX, N-methylnaltrexone]: the “effect on agonist-stimulated RhoA activation” value in the data set with RhoA (induced by morphine/MS, DAMGO, VEGF, in Example 9 also S1P and PDGF) was “inhibited; also recorded: attenuated”. For the same molecule, the “effect of MNTX pretreatment on agonist-induced PDGF receptor phosphorylation” value in the data set on PDGF receptor is “attenuated”. The “effect of MNTX pretreatment on agonist-induced VEGF receptor phosphorylation” value with VEGF receptor is on record as “attenuated”. In addition, the “tolerability of doses that maintain plasma MNTX between about 25 and 150 ng/mL” value in data set [4] is on record as “well tolerated”. Further, the “effect of MNTX pretreatment on agonist-induced S1P3 receptor phosphorylation” value with S1P3 receptor is “attenuated”. In addition, in the data set with tumor, the “angiogenesis and tumor growth, combination of opioid, opioid antagonist and anticancer agent compared to the other groups” value is reported as “enhanced result”. For the same molecule, in the data set with tumors, the “angiogenesis and tumor growth, combination of opioid, opioid antagonist and anticancer agent compared to the other groups” value is “enhanced result”; the “tumor growth and angiogenesis compared to controls or opioid alone” value is “reduction in tumor growth and angiogenesis”. In addition, in the data set with VEGF receptor 2 (Flk-1), the “effect on MS and DAMGO induced tyrosine phosphorylation of VEGF receptor 2” value is “blocked”; the “effect on VEGF induced tyrosine phosphorylation of VEGF receptor 2” value is on record as “attenuates”. Further, the “inhibition of agonist-induced HPMVEC proliferation” value in data set [2] (setting [7]) is on record as “attenuated; also recorded: inhibited”. Besides, the “effect of MNTX pretreatment on agonist-induced mu opioid receptor phosphorylation” value on mu opioid receptor is recorded as “attenuated”. Moreover, in data set [3] (setting [7]), the “inhibition of agonist-induced HPMVEC migration” value is “inhibited”. Further, in the data set on VEGF receptor 1 (Flt-1), the “effect on MS and DAMGO induced tyrosine phosphorylation of VEGF receptor 1” value is “blocked”; the “effect on VEGF induced tyrosine phosphorylation of VEGF receptor 1” value was “attenuates”. Further, the solubility in water result in [5] is listed as “freely soluble in water”.
Turning to platelet-derived growth factor [PDGF], in the data set on RhoA, the “agonist-stimulated RhoA activation” value is reported as “activation of the cytoskeletal regulatory small G-protein, RhoA”. The “agonist-induced HPMVEC proliferation” value in [2] is on record as “induced proliferation”. In addition, the “agonist-induced serine/threonine phosphorylation of the mu opioid receptor” value on mu opioid receptor is listed as “induced serine/threonine phosphorylation”. For the same molecule, the “agonist-induced HPMVEC migration” value in data set [3] is “induced”.
For the molecule “vascular endothelial growth factor [VEGF]”, in the data set with RhoA, the “agonist-stimulated RhoA activation” value is “stimulate RhoA activation; also recorded: activation of the cytoskeletal regulatory small G-protein, RhoA”. Also, in the data set with VEGF receptor 2 (Flk-1), the “agonist-induced tyrosine phosphorylation of VEGF receptor 2 (Flk-1)” value was “induced”. Besides, the “agonist-induced HPMVEC proliferation” value in data set [2] is “stimulate HPMVEC proliferation; also recorded: induced proliferation”. Moreover, on mu opioid receptor, the “agonist-induced serine/threonine phosphorylation of the mu opioid receptor” value was “induced serine/threonine phosphorylation”. The “agonist-induced HPMVEC migration” value in [3] is reported as “induce HPMVEC migration; also recorded: induced”. Besides, in the data set on VEGF receptor 1 (Flt-1), the “agonist-induced tyrosine phosphorylation of VEGF receptor 1 (Flt-1)” value is given as “induced”.
Regarding `C[C@@H](NC(=O)[C@@H](N)Cc1ccc(O)cc1)C(=O)NCC(=O)N(C)[C@@H](Cc1ccccc1)C(=O)NCCO` [DAMGO, [D-Ala^2, N-MePhe^4, Gly^5-ol] enkephalin], in the data set with RhoA, the “agonist-stimulated RhoA activation” value is “stimulate RhoA activation”. The “agonist-induced tyrosine phosphorylation of the PDGF receptor” value in the data set with PDGF receptor is “induced tyrosine phosphorylation”. The “agonist-induced tyrosine phosphorylation of the VEGF receptor” value in the data set with VEGF receptor is on record as “induced tyrosine phosphorylation”. Further, the “agonist-induced tyrosine phosphorylation of the S1P3 receptor” value in the data set with S1P3 receptor is recorded as “induced tyrosine phosphorylation”. The “agonist-induced tyrosine phosphorylation of VEGF receptor 2 (Flk-1)” value in the data set with VEGF receptor 2 (Flk-1) is “induce tyrosine phosphorylation”. Moreover, the “agonist-induced HPMVEC proliferation” value in data set [2] is “stimulate HPMVEC proliferation; also recorded: induced proliferation”. In [3], the “agonist-induced HPMVEC migration” value was “induce HPMVEC migration; also recorded: induced”. Also, the “agonist-induced tyrosine phosphorylation of VEGF receptor 1 (Flt-1)” value in the data set with VEGF receptor 1 (Flt-1) is recorded as “induce tyrosine phosphorylation”.
As to `C=CCN1CC[C@]23c4c5ccc(O)c4O[C@H]2C(=O)CC[C@@]3(O)[C@H]1C5` [naloxone], in [6], the “effect on morphine induced angiogenesis” value is given as “did not exhibit a significant effect”.
